Test results from patent EP0326490B2, “Synthetic peptides and mixtures thereof for detecting HIV antibodies” (ADALTIS INC., priority 1988, dated 2004).
Positions of bridges follow the written chain, without caps; N, C: chain ends. Residues, ends and D or L forms follow the SMILES beside them. No end group written: not given here.

Experiments:
HIV-1 positive sera [1] = details: cited from earlier work; for HIV-1 positive sera reacting of sera tested: J. Virol. 61, 2639-2641, 1987
[2] = Stability of linear and cyclic peptide in coating buffers (HPLC, Ellman's test); format: physicochemical
From the text: Even though results presented in TABLE 5 clearly show the superiority of cyclic peptides over their linear counterpart in detecting HIV-1-antibodies, that increased sensitivity could have been underestimated because of probable cyclization and polymerization of the linear peptide after solubilization in a carbonate buffer (pH 9.6). That experiment was repeated with the linear 87 and cyclic 87c peptides dissolved in a carbonate buffer (pH 9.6) as before and also in 10% acetic acid (pH 2.7). […] It is believed that cyclization and polymerization also occured in the wells of the microtiter plates although the exact proportion of cyclic peptide bound to the plates versus linear has not been as yet determined.

HIV-1 positive sera [3] = test: ELISA, single peptides identifying HIV-1 positive sera; format: binding, human; details: single gp41 or gp120 peptide
Procedure: According to this test a peptide or a peptide mixture of the present invention is adsorbed onto the wells of a microtiter plate. The wells are then treated with sera to be tested. After washing, anti-human IgG labeled with peroxidase is added to the wells. The determination of the peroxidase is performed with a corresponding substrate, e.g. with o-phenylene diamine. Also in this procedure the peroxidase can be exchanged by another label, e.g. by a radioactive or fluorescence label.
Each well of the microtiter plate is saturated with 100 µl of a solution containing a peptide or mixture of peptides (5 µg/ml) and left overnight. The wells are emptied and washed twice with a washing buffer (Tris, 0.043M; NaCl, 0.5M;thimerosal, 0.01% w/v; Tween 20, 0.05% v/v; pH 7.4). The wells are then saturated with […] of washing buffer for 1 hr. at 37°C and washed once with the same buffer. Serum samples to be analyzed are diluted with specimen buffer (washing buffer plus casein, 0.05% w/v). The bells are rinsed with washing buffer prior to the addition of the diluted serum sample (0.1 ml). These are left to incubate for 1 hr. at room temperature. The wells are then emptied, washed twice rapidly and then once for two minutes with washing buffer. […] The wells are then emptied and washed twice rapidly with washing buffer and then five times in which the buffer was in contact with the well 2 minutes per washing. The substrate solution (3,3', 5,5'-tetramethylbenzidine, 8 mg per ml of DMSO) is diluted with 100 volumes 0.1 M citrate-acetate buffer, pH 5.6 containing 0.1% v/v of 30% H2O2 and added to each well (0.1 ml per well). After 10 minutes the contents of each well is treated with 0.1 ml 2N H2SO4 and the optical density read at 450 nm. All determinations are done in duplicate.

Compound: SGKLIC
- HIV-1 positive sera reacting of sera tested (HIV-1 positive sera [1]; Gnann et al.): not immunoreactive with any of the 22 HIV-1 positive sera tested

Compound: CC[C@H](C)[C@H](NC(=O)CNC(=O)[C@H](CC(C)C)NC(=O)[C@H](CC(C)C)NC(=O)[C@H](CCC(N)=O)NC(=O)[C@H](CCC(N)=O)NC(=O)[C@H](CC(=O)O)NC(=O)[C@H](CCCCN)NC(=O)[C@H](CC(C)C)NC(=O)[C@H](Cc1ccc(O)cc1)NC(=O)[C@H](CCCNC(=N)N)NC(=O)[C@H](CCC(=O)O)NC(=O)[C@@H](NC(=O)[C@H](C)NC(=O)[C@H](CC(C)C)NC(=O)[C@@H](NC(=O)[C@@H](N)CCCNC(=N)N)[C@@H](C)CC)C(C)C)C(=O)N[C@@H](Cc1c[nH]c2ccccc12)C(=O)NCC(=O)N[C@@H](CS)C(=O)N[C@@H](CO)C(=O)NCC(=O)N[C@@H](CCCCN)C(=O)N[C@@H](CC(C)C)C(=O)N[C@H](C(=O)N[C@@H](CS)C(=O)N[C@H](C(=O)N[C@H](C(=O)N[C@@H](C)C(=O)N[C@H](C(=O)N1CCC[C@H]1C(=O)N[C@@H](Cc1c[nH]c2ccccc12)C(=O)N[C@@H](CC(N)=O)C(=O)N[C@@H](C)C(=O)N[C@@H](CO)C(=O)O)C(C)C)[C@@H](C)O)[C@@H](C)O)[C@@H](C)CC [Peptide 87] (H-RILAVERYLKDQQLLGIWGCSGKLICTTAVPWNAS-OH)
- stability in solution (HPLC, Ellman's test) ([2]; 10% acetic acid (pH 2.7)): remained linear
- stability in solution (HPLC analysis) ([2]; carbonate buffer (pH 9.6), room temperature): underwent cyclization and polymerization

Compound: SGKLICTTAVPWNAS [short synthetic peptide covering residues 606 to 620 of gp41 (HIV-1)]
- specificity (samples correctly identified of samples tested) (HIV-1 positive sera [1]; US Patent Appl. No. 120,027): 63/63
- sensitivity (HIV-1 positive sera [1]; prior-art reports, HIV-1 seropositive samples): 89%

Compound: 88: cyclic peptide, amino acid positions 590-620 of gp41-HIV-1 (QQLLGIWGCSGKLICTTAVPWNASWSNKSLE; disulfide 9-15 (inferred); UniProt P04578 590-620, looked up, fragment) [Peptide 88]
- % Positive Sera correctly Idenfitied (HIV-1 positive sera [3]): 100%

Compound: 96: cyclic peptide, amino acid positions 604-629 of gp41-HIV-1 (CTTAVPWNASWSNKSLEQIWNHTTWM; also: cyclic peptide, ring not given here; UniProt P04578 604-629, looked up, fragment) [Peptide 96]
- % Positive Sera correctly Idenfitied (HIV-1 positive sera [3]): 100%

Compound: 12-amino acid sequence (600-611): 12-amino acid sequence (600-611) from gp41-(HIV-1), Gnann et al. (GKLICTTAVPWN; Transmembrane protein gp41; UniProt P04578 600-611, looked up, fragment)
- HIV-1 infected patients reactive of patients tested (HIV-1 positive sera [1]; Gnann et al., J. Infect. Dis. 156, 261-267, 1987, patients from the United States): 131 out of 132
- HIV-1 positive sera reacting of sera tested (HIV-1 positive sera [1]; Gnann et al.): 22 out of 22
- positive sera detected of sera tested (HIV-1 positive sera [1]; tests at the Centers for Disease Control, Atlanta): 78 out of 79

Compound: H-CGKIEPLGVAPTKAKRRVVQREKR-OH [Peptide 71]
- % Positive Sera correctly Idenfitied (HIV-1 positive sera [3]): 83%
